Source: patent publication US9212204B2, “Treatment of rett syndrome using glycyl-L-2-methylprolyl-L-glutamic acid” (priority 2011, dated 2015)
Non-standard residues stand in square brackets, D forms with d. Residues, ends and D or L forms follow the SMILES beside them. αMeP = C[C@@]1(C(=O)O)CCCN1

How the values were obtained:
[1] = tested on: animals with hypoxic-ischemic injuries caused by middle cerebral artery occlusion; conditions: MCaO; cited from earlier work
[2] = tested on: Tbx1 heterozygous, Cntnap2 knockout, Slc9a6 knockout and fmr1 knockout mice; test: Genetic mouse models of ASD and Fragile X Syndrome; assay type: in vivo; conditions: 20 mg/kg/day i.p.
Description: Effects of G-2-MePE are further tested in the following genetic models of ASD: the Tbx1 heterozygous mouse, the Cntnap2 knockout mouse and the Sic9a6 knockout mouse. G-2-MePE is also tested in the fmr1 knockout mouse model of Fragile X Syndrome.
Animals in each of the above models are generated in accordance with the methodology described in the cited literature. Wild type equivalents are also obtained for each genetic model. Animals in each model are divided into three groups (n=10 to n=20): placebo treated wild type mice, mutant G-2-MePE-treated group and mutant placebo-treated control group.
The treatments are administered intraperitoneally: placebo (saline) or 20 mg/kg/day of G-2-MePE.

[3] = tested on: heterozygous Shank3-deficient mice; test: Shank3-deficient mouse model, behavioral analyses; assay type: in vivo; conditions: 15 or 60 mg/kg oral b.i.d. for 14 days
Excerpt: Heterozygous mice generated by crossing wild-type mice with heterozygotes are used in this example to best model the haploinsufficiency of Shank3, responsible for 22q13 deletion syndrome.
1 to 3 month old wild type and heterozygous Shank3-deficient mice are divided into 4 treatment groups: placebo treated wild-type, placebo treated Shank3-deficient group and two Shank3-deficient G-2-MePE treated groups. The animals are given placebo (water) or G-2-MePE formulated in water administered orally, b.i.d for 14 days. G-2-MePE is administered at two doses: 15 or 60 mg/kg.
Behavioral assessments are made at several, time points, and include analysis of social interactions and ultrasonic social communication, in line with the methodology described by Bozdagi et al. Briefly, male-female social interactions in each treatment group are evaluated. […] Videos from the male subjects are subsequently scored by an investigator uninformed of the subject's genotype and treatment group on measures of nose-to-nose sniffing, nose-to-anogenital sniffing and sniffing of other body regions, using Noldus Observer software (Noldus Information Technology, Leesburg, Va., USA). Ultrasonic vocalizations are identified manually by two highly trained investigators blinded to genotype/treatment group information, and summary statistics are calculated using the Avisoft package. […]

[4] = tested on: RTT iPSC-derived neurons; test: In vitro human model of Rett Syndrome, iPSC-derived neurons; assay type: cell-based; parameters: glutamatergic synapse numbers: dose or concentration left out as unconfirmed
Excerpt: To test the effects of G-2-MePE on neuronal morphology, we used an in vitro model of RTT described in Marchetto et al., A model for neural development and treatment of Rett syndrome using human induced pluripotent stem cells, Cell 143:527-539 (2010) (including supplemental information). The model uses induced pluripotent stem cells (iPSCs) generated from fibroblasts of human RTT patients carrying different MeCP2 mutations.
RTT fibroblasts (carrying 4 distinct MeCP2 mutations) and control fibroblasts are generated from explants of dermal biopsies. The shRNA against target MeCP2 gene is cloned into the LentiLox3.7 lentivirus vector (as described in Marchetto et al.). The fibroblasts are infected with retroviral reprogramming vectors (Sox2, Oct4, c-Myc and Klf4), Two days after infection, fibroblasts are plated on mitotically inactivated mouse embryonic fibroblasts with hESC medium. After 2 weeks, iPSC colonies that emerge from the background of fibroblasts are manually picked and transferred to feeder-free conditions on matrigel-coated dishes (BD) using embryonic stem cell culture media mTeSR™ (Stem Cell Technologies) and passaged manually. Gene expression profiles of the generated clones are measured using human genome Affymetrix Gene Chip™ arrays to confirm that reprogramming is successful.
To obtain neural progenitor cells (NPCs), embryoid bodies (EBs) are formed by mechanical dissociation of cell clusters and plating onto low-adherence dishes in hESC medium without FGF2 for 5-7 days. After that, EBs are plated onto poly-ornithine/laminin-coated dishes in DMEM/F12 plus N2 medium (serum-free supplement for growth and expression of post-mitotic cells). […]
Cells are fixed in 4% paraformaldehyde and permeabilized with 0.5% Triton-X100 in PBS. […] Fluorescent signals are detected using a Zeiss inverted microscope and images are processed with Photoshop CS3. The following primary antibodies are used: TRA-1-60, TRA-1-81 (1:100), Nanog and Lin28 (1:500), human Nestin (1:100), Tuj-1 (1:500), Map2 (1:100); meCP2 (1:1000; VGLUT1 (1:200), Psd95 (1:500), GFP (1:200), Sox1 (1:250), Mushasil (1:200) and me3H3K27 (1:500). Cell soma size is measured using suitable software (e.g. ImageJ) after identification of neurons using the Syn::EGFP™. The morphologies of neuronal dendrites and spines are studied from an individual projection of z-stacks optical sections and scanned at 0.5 um increments that correlate with the resolution valued at z-plane. Each optical section is the result of 3 scans at 500 lps followed by Kalman filtering. For synapse quantification, images are taken by a z-step of 1 um using Biorad radiance 2100™ confocal microscope. Synapse quantification is done blinded to genotype. Only VGLUT1 puncta along Map2-positive processes are counted. […]

## C[C@@]1(C(=O)N[C@@H](CCC(=O)O)C(=O)O)CCCN1C(=O)CN [Example G-2-MePE, Glycyl-L-2-methylprolyl-L-glutamic acid] (H-Gly-[αMeP]-Glu-OH)
[1]
  non-convulsive seizures (NCS): inhibit
[2]
  measures associated with the ASD phenotype: significantly improves
[3]; vs placebo treated Shank3-deficient group
  cumulative duration of total social sniffing: significant increase
[3]; vs placebo treated mutant group
  number of ultrasonic vocalizations: increased number
[4]; 1 week treatment
  frequency and amplitude of spontaneous post-synaptic currents: normalizes
  frequency of calcium transients: normalizes
[4]; all concentrations, 1 week
  VGLUT1 puncta number: increase
[4]; for 1 week, vs non-treated RTT controls
  glutamatergic synapse numbers: significant increase
